Results as given in PubChem BioAssay AID1963843 (Molecular Pharmacology Branch, DTP, NCI, 2024).

Tested on: 616215-338-R-J1-PDC complex spheroid viability
Assay: Anticancer human tumor 616215-338-R-J1-PDC patient-derived colon adenocarcinoma cell line growth inhibition [POLQ]
Conditions: for IC50: curve of first compound; for viability, T/C: stronger effect = lower value
How it was run: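 PDC + HUVEC + MSC complex spheroids; POLQ inhibitors ± partner drugs; top conc. at/near clinical Cmax, else 10 microM (SN-38 1 microM), half-log dilutions; 37 degrees C, 5% CO2.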

[1] = second compound 0.0316 µM, first compound 0.0316 µM
[2] = second compound 0.0316 µM, first compound 0.1 µM
[3] = second compound 0.0316 µM, first compound 0.316 µM
[4] = second compound 0.0316 µM, first compound 1 µM
[5] = second compound 0.0316 µM, first compound 3.16 µM
[6] = second compound 0.0316 µM, first compound 10 µM
[7] = second compound 0.1 µM, first compound 0.0316 µM
[8] = second compound 0.1 µM, first compound 0.1 µM
[9] = second compound 0.1 µM, first compound 0.316 µM
[10] = second compound 0.1 µM, first compound 1 µM
[11] = second compound 0.1 µM, first compound 3.16 µM
[12] = second compound 0.1 µM, first compound 10 µM
[13] = second compound 0.316 µM, first compound 0.0316 µM
[14] = second compound 0.316 µM, first compound 0.1 µM
[15] = second compound 0.316 µM, first compound 0.316 µM
[16] = second compound 0.316 µM, first compound 1 µM
[17] = second compound 0.316 µM, first compound 3.16 µM
[18] = second compound 0.316 µM, first compound 10 µM
[19] = second compound 1 µM, first compound 0.0316 µM
[20] = second compound 1 µM, first compound 0.1 µM
[21] = second compound 1 µM, first compound 0.316 µM
[22] = second compound 1 µM, first compound 1 µM
[23] = second compound 1 µM, first compound 3.16 µM
[24] = second compound 1 µM, first compound 10 µM
[25] = second compound 3.16 µM, first compound 0.0316 µM
[26] = second compound 3.16 µM, first compound 0.1 µM
[27] = second compound 3.16 µM, first compound 0.316 µM
[28] = second compound 3.16 µM, first compound 1 µM
[29] = second compound 3.16 µM, first compound 3.16 µM
[30] = second compound 3.16 µM, first compound 10 µM
[31] = second compound 10 µM, first compound 0.0316 µM
[32] = second compound 10 µM, first compound 0.1 µM
[33] = second compound 10 µM, first compound 0.316 µM
[34] = second compound 10 µM, first compound 1 µM
[35] = second compound 10 µM, first compound 3.16 µM
[36] = second compound 10 µM, first compound 10 µM
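Further: spheroids exposed to compounds for one week before readout.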
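Wherever viability, T/C is given: percent viability relative to DMSO vehicle wells taken as 100%.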

Nc1ccn(C2OC(CO)C(O)C2(F)F)c(=O)n1 (centres undefined) + Nc1ccc(C#CCN(C(=O)Cc2ncc(C(F)(F)F)cc2C(F)(F)F)c2ccc(F)cc2)nn1
IC50 (second compound 0.0316 µM): < 0.0316 µM | IC50 (second compound 0.1 µM): < 0.0316 µM | IC50 (second compound 0.316 µM): < 0.0316 µM | IC50 (second compound 1 µM): < 0.0316 µM | IC50 (second compound 3.16 µM): < 0.0316 µM | IC50 (second compound 10 µM): < 0.0316 µM | viability, T/C [1]: 22.1% | viability, T/C [2]: 17.1% | viability, T/C [3]: 10.8% | viability, T/C [4]: 10.9% | viability, T/C [5]: 14.9% | viability, T/C [6]: 16.1% | viability, T/C [7]: 27.7% | viability, T/C [8]: 15.5% | viability, T/C [9]: 12.6% | viability, T/C [10]: 12.6% | viability, T/C [11]: 12.6% | viability, T/C [12]: 12.6% | viability, T/C [13]: 28.6% | viability, T/C [14]: 24.1% | viability, T/C [15]: 10.9% | viability, T/C [16]: 13.3% | viability, T/C [17]: 12.6% | viability, T/C [18]: 13.8% | viability, T/C [19]: 22.7% | viability, T/C [20]: 15.2% | viability, T/C [21]: 11.2% | viability, T/C [22]: 12.6% | viability, T/C [23]: 13.1% | viability, T/C [24]: 13.3% | viability, T/C [25]: 23.6% | viability, T/C [26]: 19.6% | viability, T/C [27]: 12% | viability, T/C [28]: 10.3% | viability, T/C [29]: 13.6% | viability, T/C [30]: 13.9% | viability, T/C [31]: 26.8% | viability, T/C [32]: 20.3% | viability, T/C [33]: 12.2% | viability, T/C [34]: 12.6% | viability, T/C [35]: 11.3% | viability, T/C [36]: 12.2%

O=C(c1cc(Cc2n[nH]c(=O)c3ccccc23)ccc1F)N1CCN(C(=O)C2CC2)CC1 + Cc1cccc(N(C)C(=O)C2C(O)CCN2c2nc(C)cc(C(F)(F)F)c2C#N)c1
IC50 (second compound 0.0316 µM): > 10 µM | IC50 (second compound 0.1 µM): > 10 µM | IC50 (second compound 0.316 µM): > 10 µM | IC50 (second compound 1 µM): > 10 µM | IC50 (second compound 3.16 µM): > 10 µM | IC50 (second compound 10 µM): > 10 µM | viability, T/C [1]: 105% | viability, T/C [2]: 93.8% | viability, T/C [3]: 102% | viability, T/C [4]: 98.4% | viability, T/C [5]: 103% | viability, T/C [6]: 87.8% | viability, T/C [7]: 103% | viability, T/C [8]: 98.4% | viability, T/C [9]: 107% | viability, T/C [10]: 107% | viability, T/C [11]: 99.9% | viability, T/C [12]: 94.3% | viability, T/C [13]: 95.3% | viability, T/C [14]: 102% | viability, T/C [15]: 108% | viability, T/C [16]: 98.9% | viability, T/C [17]: 108% | viability, T/C [18]: 89.2% | viability, T/C [19]: 111% | viability, T/C [20]: 106% | viability, T/C [21]: 105% | viability, T/C [22]: 101% | viability, T/C [23]: 102% | viability, T/C [24]: 78% | viability, T/C [25]: 103% | viability, T/C [26]: 102% | viability, T/C [27]: 95.6% | viability, T/C [28]: 103% | viability, T/C [29]: 97.3% | viability, T/C [30]: 88.4% | viability, T/C [31]: 113% | viability, T/C [32]: 101% | viability, T/C [33]: 100% | viability, T/C [34]: 104% | viability, T/C [35]: 110% | viability, T/C [36]: 86.6%
